The values below are quoted from earlier work in patent US8685950B2, “Use of aromatase inhibitors for treatment of ectopic pregnancy” (Wayne State University, priority 2004, dated 2014).

SMILES strings stand for the structures. Where a name gives a salt, the structure may show the parent alone.

In one data set the test system is progesterone production. The following applies: baboon, early pregnancy.
The conditions of data set [1]: in vivo.
The conditions of data set [2]: baboons; effect reversed by diethylstilbestrol.
The next data set has as its system ectopic pregnancy. The following applies: ectopic pregnancy patients.

On to `C1=C(c2ccccc2)C(c2ccc(OCCN3CCCCC3)cc2)Oc2ccccc21` (stereo not drawn) [CDRI-85/287], for which, in the data set with primate endometrium, the “amount of estrogen and progesterone receptors” value is listed as “decrease the amount of both receptors”.
For the compound `CCN(CC)CCOc1ccc(C(O)(Cc2ccc(OC)cc2)c2ccccc2)cc1` (stereo not drawn) [MER-25], in the data set on progesterone production, the plasma progesterone result is listed as “depression in plasma progesterone”.
Turning to `CCC1(c2ccc(N)cc2)CCC(=O)NC1=O` (stereo not drawn) [aminoglutethimide], the “patients stopping the treatment because of side effects (lethargy, rashes, nausea, fever)” value in data set [1] is 8-15%.
With `CCN(CC)CCOc1ccc(C(O)(Cc2ccc(OC)cc2)c2ccccc2)cc1` (stereo not drawn) [ethamoxytriphetol], the “placental progesterone formation and serum progesterone concentrations” value in data set [2] is reported as “decreased”.
Turning to `CN(Cc1cnc2nc(N)nc(N)c2n1)c1ccc(C(=O)N[C@@H](CCC(=O)O)C(=O)O)cc1` [methotrexate], in the data set on ectopic pregnancy, the “period to resolution of the pregnancy” value was “more than three weeks in most patients”.
Regarding `COc1ccc(C2=C(C(=O)c3ccc(OCCN4CCCC4)cc3)c3ccccc3CC2)cc1` [trioxifene mesylate], in the data set on progesterone production, the plasma progesterone result was “no such effect was found”.
